Results on 1 molecule are retold here after EP4810038A1, “METHOD FOR TREATING ALK-POSITIVE OR ROS1-POSITIVE NON-SMALL CELL LUNG CANCER” (Shenzhen TargetRx Co., Ltd., priority 2023, dated 2025).

A short description of this data set: Phase II single-arm trial: safety analysis. It is filed as in vivo. The following applies: 60 mg QD. An excerpt:
Once a subject met the criteria for the discontinuation of the treatment/withdrawal from the treatment and discontinued the medication, the subject entered a 4-week safety follow-up period. If other anti-tumor therapies were used during the safety follow-up period, a safety follow-up visit and inspection must be completed before starting the other anti-tumor therapies. For the unresolved adverse event or abnormal laboratory test, the follow-up continued until the event was resolved, the subject returned to the baseline status, the condition stabilized, a reasonable explanation was obtained, or the subject was lost to follow-up or died.

With `[2H]C([2H])([2H])n1nc2c(c1C#N)-c1cnc(N)c(c1)O[C@H](C)c1cc(F)ccc1C(=O)N(C)C2` [compound A, (10R)-7-amino-12-fluoro-2-(methyl-d3)-10,16-dimethyl-15-oxo-10,15,16,17-tetrahydro-2H-8,4-(metheno)pyrazolo[4,3-h][2,5,11]benzoxadiazacyclotetradecine-3-carbonitrile], the “common TRAEs” value is “hypercholesterolemia, hypertriglyceridemia, weight gain, anemia, and peripheral edema”; the “incidence of TRAEs leading to dose reduction, temporary or permanent discontinuation of medication” value is listed as “low”.
